Target: T1, SIRT1 (Homo sapiens, UniProt Q96EB6)
T1 sequence (Q96EB6 1-747): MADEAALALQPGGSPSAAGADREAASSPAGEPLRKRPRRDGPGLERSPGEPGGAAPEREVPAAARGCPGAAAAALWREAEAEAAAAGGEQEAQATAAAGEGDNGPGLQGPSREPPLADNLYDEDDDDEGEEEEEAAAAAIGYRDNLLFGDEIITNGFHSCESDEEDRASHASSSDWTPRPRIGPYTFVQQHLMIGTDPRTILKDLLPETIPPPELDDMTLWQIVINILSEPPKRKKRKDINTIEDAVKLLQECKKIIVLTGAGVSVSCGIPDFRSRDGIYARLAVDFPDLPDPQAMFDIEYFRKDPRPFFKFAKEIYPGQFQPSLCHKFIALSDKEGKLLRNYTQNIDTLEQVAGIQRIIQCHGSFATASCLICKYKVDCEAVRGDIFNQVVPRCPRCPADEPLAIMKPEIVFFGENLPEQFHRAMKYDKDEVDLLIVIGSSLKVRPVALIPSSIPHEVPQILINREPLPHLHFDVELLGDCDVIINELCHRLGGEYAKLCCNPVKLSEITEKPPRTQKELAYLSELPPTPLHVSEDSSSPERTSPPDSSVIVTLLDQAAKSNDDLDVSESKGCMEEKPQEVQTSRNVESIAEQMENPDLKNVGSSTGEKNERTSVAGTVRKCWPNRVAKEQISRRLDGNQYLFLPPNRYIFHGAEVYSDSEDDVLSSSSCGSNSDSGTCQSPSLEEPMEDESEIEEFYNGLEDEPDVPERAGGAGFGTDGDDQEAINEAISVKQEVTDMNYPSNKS
Test: Mass spectrometry based SIRT1 deacetylation (activation) assay
Type: biochemical
Details: 0.5 μM peptide substrate, 120 μM βNAD+, 10 nM SIRT1, 25 min at 25° C.; for Emax: 25 min, read-out: % Fold Act. (percent maximum fold activation)
Excerpt: A mass spectrometry based assay was used to identify modulators of SIRT1 activity. The mass spectrometry based assay utilizes a peptide having 20 amino acid residues as follows: Ac-EE-K(biotin)-GQSTSSHSK(Ac)NleSTEG-K(5TMR)-EE-NH2 (SEQ ID NO: 1) wherein K(Ac) is an acetylated lysine residue and Nle is a norleucine. The peptide is labeled with the fluorophore 5TMR (excitation 540 nm/emission 580 nm) at the C-terminus. The sequence of the peptide substrate is based on p53 with several modifications. In addition, the methionine residue naturally present in the sequence was replaced with the norleucine because the methionine may be susceptible to oxidation during synthesis and purification.
The mass spectrometry assay is conducted as follows: 0.5 μM peptide substrate and 120 μM βNAD^+ is incubated with 10 nM SIRT1 for 25 minutes at 25° C. in a reaction buffer (50 mM Tris-acetate pH 8, 137 mM NaCl, 2.7 mM KCl, 1 mM MgCl2, 5 mM DTT, 0.05% BSA). Test compounds may be added to the reaction as described above. […] After the 25 minute incubation with SIRT1, 10 μL of 10% formic acid is added to stop the reaction. Reactions are sealed and frozen for later mass spec analysis. Determination of the mass of the substrate peptide allows for precise determination of the degree of acetylation (i.e. starting material) as compared to deacetylated peptide (product).
A control for inhibition of sirtuin activity is conducted by adding 1 μL of 500 mM nicotinamide as a negative control at the start of the reaction (e.g., permits determination of maximum sirtuin inhibition). A control for activation of sirtuin activity is conducted using 10 nM of sirtuin protein, with 1 μL of DMSO in place of compound, to determine the amount of deacetylation of the substrate at a given timepoint within the linear range of the assay. This timepoint is the same as that used for test compounds and, within the linear range, the endpoint represents a change in velocity.
For the above assay, SIRT1 protein was expressed and purified as follows. […] The protein was expressed by induction with 1 mM IPTG as an N-terminal His-tag fusion protein at 18° C. overnight and harvested at 30,000×g. Cells were lysed with lysozyme in lysis buffer (50 mM Tris-HCl, 2 mM Tris[2-carboxyethyl]phosphine (TCEP), 10 μM ZnCl2, 200 mM NaCl) and further treated with sonication for 10 min for complete lysis. The protein was purified over a Ni-NTA column (Amersham) and fractions containing pure protein were pooled, concentrated and run over a sizing column (Sephadex S200 26/60 global). The peak containing soluble protein was collected and run on an Ion-exchange column (MonoQ). Gradient elution (200 mM-500 mM NaCl) yielded pure protein. This protein was concentrated and dialyzed against dialysis buffer (20 mM Tris-HCl, 2 mM TCEP) overnight. The protein was aliquoted and frozen at −80° C. until further use.

EC1.5 | Emax | SMILES
C (EC1.5>10 uM) | 150 to 300% | CCc1ccccc1NC(=O)c1cc(NCCN(C)C)nc(-c2ccccc2)n1 [Compound 1]
C (EC1.5>10 uM) | < 150% | CN(C)CCNc1cc(C(=O)Nc2ccccc2-c2ccccc2)nc(-c2ccccc2)n1 [Compound 2]
B (EC1.5>1 and ≦10 uM) | ≥ 300% | CN(C)CCNc1cc(C(=O)Nc2ccccc2C(N)=O)nc(-c2ccccc2)n1 [Compound 3]
B (EC1.5>1 and ≦10 uM) | 150 to 300% | CN(C)CCNc1cc(C(=O)Nc2ccccc2C#N)nc(-c2ccccc2)n1 [Compound 4]
A (EC1.5≦1 uM) | ≥ 300% | COC(=O)c1ccccc1NC(=O)c1cc(NCCN(C)C)nc(-c2ccccc2)n1 [Compound 5]
C (EC1.5>10 uM) | 150 to 300% | CN(C)CCNc1cc(C(=O)Nc2ccccc2)nc(-c2ccccc2)n1 [Compound 6]
B (EC1.5>1 and ≦10 uM) | ≥ 300% | Cc1csc(-c2ccccc2NC(=O)c2cc(NCCN(C)C)nc(-c3ccccc3)n2)n1 [Compound 7]
A (EC1.5≦1 uM) | ≥ 300% | CN(C)CCNc1cc(C(=O)Nc2ccccc2-c2nccs2)nc(-c2ccccc2)n1 [Compound 8]
B (EC1.5>1 and ≦10 uM) | 150 to 300% | CN(C)CCNc1cc(C(=O)Nc2ccccc2-c2ccncc2)nc(-c2ccccc2)n1 [Compound 10]
B (EC1.5>1 and ≦10 uM) | 150 to 300% | CN(C)CCNc1cc(C(=O)Nc2ccccc2-c2cccnc2)nc(-c2ccccc2)n1 [Compound 11]
B (EC1.5>1 and ≦10 uM) | 150 to 300% | CN(C)CCNc1cc(C(=O)Nc2ccccc2-c2csc(-c3ccccc3)n2)nc(-c2ccccc2)n1 [Compound 12]
A (EC1.5≦1 uM) | 150 to 300% | CN(C)CCNc1cc(C(=O)Nc2ccccc2-c2ncc(-c3ccccc3)s2)nc(-c2ccccc2)n1 [Compound 13]
B (EC1.5>1 and ≦10 uM) | 150 to 300% | CN(C)CCNc1cc(C(=O)Nc2ccccc2-c2nc(-c3ccccc3)cs2)nc(-c2ccccc2)n1 [Compound 14]
A (EC1.5≦1 uM) | ≥ 300% | CN(C)CCNc1cc(C(=O)Nc2ccccc2-c2c[nH]c(-c3ccccc3)n2)nc(-c2ccccc2)n1 [Compound 15]
B (EC1.5>1 and ≦10 uM) | ≥ 300% | CN(C)CCNc1cc(C(=O)Nc2ccccc2-c2ccco2)nc(-c2ccccc2)n1 [Compound 16]
A (EC1.5≦1 uM) | 150 to 300% | O=C(Nc1ccccc1-c1ncc(-c2ccccc2)s1)c1cc(NCCN2CCCCC2)nc(-c2ccccc2)n1 [Compound 17]
A (EC1.5≦1 uM) | 150 to 300% | O=C(Nc1ccccc1-c1ncc(-c2ccccc2)s1)c1cc(N2CCNCC2)nc(-c2ccccc2)n1 [Compound 18]
A (EC1.5≦1 uM) | 150 to 300% | O=C(Nc1ccccc1-c1ncc(-c2ccccc2)s1)c1cc(NCCN2CCCC2)nc(-c2ccccc2)n1 [Compound 19]
B (EC1.5>1 and ≦10 uM) | ≥ 300% | Cc1nnc(-c2ccccc2NC(=O)c2cc(NCCN(C)C)nc(-c3ccccc3)n2)o1 [Compound 20]
A (EC1.5≦1 uM) | 150 to 300% | Cc1nnc(-c2ccccc2NC(=O)c2cc(NCCN(C)C)nc(-c3ccccc3)n2)s1 [Compound 21]
B (EC1.5>1 and ≦10 uM) | ≥ 300% | Cc1cnc(-c2ccccc2NC(=O)c2cc(NCCN(C)C)nc(-c3ccccc3)n2)s1 [Compound 22]

EC1.5 | Emax | SMILES
B (EC1.5>1 and ≦10 uM) | ≥ 300% | Cc1cnc(-c2ccccc2NC(=O)c2cc(NCCN(C)C)nc(-c3ccccc3)n2)o1 [Compound 23]
B (EC1.5>1 and ≦10 uM) | 150 to 300% | CN(C)CCNc1cc(C(=O)Nc2ccccc2-n2cc(-c3ccccc3)cn2)nc(-c2ccccc2)n1 [Compound 24]
A (EC1.5≦1 uM) | 150 to 300% | CN(C)CCNc1cc(C(=O)Nc2ccccc2-c2nnc(-c3ccccc3)s2)nc(-c2ccccc2)n1 [Compound 25]
A (EC1.5≦1 uM) | ≥ 300% | CN(C)CCNc1cc(C(=O)Nc2ccccc2-c2nncs2)nc(-c2ccccc2)n1 [Compound 26]
A (EC1.5≦1 uM) | ≥ 300% | CN(C)CCN(C)c1cc(C(=O)Nc2ccccc2-c2nncs2)nc(-c2ccccc2)n1 [Compound 27]
B (EC1.5>1 and ≦10 uM) | ≥ 300% | CN(C)CCNc1cc(C(=O)Nc2ccccc2-c2ccccn2)nc(-c2ccccc2)n1 [Compound 28]
B (EC1.5>1 and ≦10 uM) | ≥ 300% | CN(C)CCNc1cc(C(=O)Nc2ccccc2-c2ncc(C(C)(C)C)s2)nc(-c2ccccc2)c1 [Compound 29]
A (EC1.5≦1 uM) | ≥ 300% | CN(C)CCNc1cc(C(=O)Nc2ccccc2-c2ncc(-c3ccccc3)o2)nc(-c2ccccc2)c1 [Compound 30]
B (EC1.5>1 and ≦10 uM) | ≥ 300% | CN(C)CCNc1cc(C(=O)Nc2ccccc2-c2ncc(C(C)(C)C)o2)nc(-c2ccccc2)c1 [Compound 31]
A (EC1.5≦1 uM) | ≥ 300% | CNCCN(C)c1cc(C(=O)Nc2ccccc2-c2nnc(-c3ccccc3)s2)nc(-c2ccccc2)n1 [Compound 32]
A (EC1.5≦1 uM) | ≥ 300% | CN(C)CCNc1cc(C(=O)Nc2ccccc2-c2nnc(-c3ccccc3)s2)nc(-c2ccccc2)c1 [Compound 33]
A (EC1.5≦1 uM) | ≥ 300% | CCN(CCN(C)C)c1cc(C(=O)Nc2ccccc2-c2ncc(-c3ccccc3)o2)nc(-c2ccccc2)c1 [Compound 34]
A (EC1.5≦1 uM) | 150 to 300% | CN(C)CCN(C)c1cc(C(=O)Nc2ccccc2-c2nnc(-c3ccccc3)s2)nc(-c2ccccc2)c1 [Compound 35]
A (EC1.5≦1 uM) | 150 to 300% | CCN(CCN(C)C)c1cc(C(=O)Nc2ccccc2-c2nnc(-c3ccccc3)s2)nc(-c2ccccc2)n1 [Compound 36]
B (EC1.5>1 and ≦10 uM) | 150 to 300% | CN(C)CCNc1cc(C(=O)Nc2ccccc2-c2ncc(C(C)(C)C)s2)nc(-c2ccccc2)n1 [Compound 37]
A (EC1.5≦1 uM) | 150 to 300% | CN(C)CCNc1cc(C(=O)Nc2ccccc2-c2ncc(-c3ccccc3)o2)nc(-c2ccccc2)n1 [Compound 38]
B (EC1.5>1 and ≦10 uM) | 150 to 300% | CN(C)CCNc1cc(C(=O)Nc2ccccc2-c2ncc(C(C)(C)C)o2)nc(-c2ccccc2)n1 [Compound 39]
A (EC1.5≦1 uM) | ≥ 300% | CNCCN(C)c1cc(C(=O)Nc2ccccc2-c2nncs2)nc(-c2ccccc2)n1 [Compound 40]
A (EC1.5≦1 uM) | ≥ 300% | CCN(CCN(C)C)c1cc(C(=O)Nc2ccccc2-c2nncs2)nc(-c2ccccc2)n1 [Compound 41]
A (EC1.5≦1 uM) | 150 to 300% | CCN(CCN(C)C)c1cc(C(=O)Nc2ccccc2-c2ncc(C(C)(C)C)s2)nc(-c2ccccc2)c1 [Compound 42]

Reference: US20110039847A1, “AMIDE DERIVATIVES AS SIRTUIN MODULATORS” (Sirtris Pharmaceuticals, Inc, priority 2007, published 2011)
